Drawing on patent US8735414B2 (priority 2009, dated 2014), this text covers IC50 for 30 molecules.

Broadly, the IC50 is the concentration needed to halve the response being measured.

The assay relates to bicistronic HCV replicon (replicon RNA, GenBank Accession No. AJ242654). Put plainly: HCV Replicon Assay. Type of assay: cell-based. The following applies: Hepatitis C virus, 72 h, read-out: Replicon IC50.
As for `N#Cc1c(-c2ncc(S(=O)(=O)NC(CF)CF)cn2)n(C2CCC2)c2cc(C(F)F)ccc12` [compound 330, 2-[3-cyano-1-cyclobutyl-6-(difluoromethyl)-1H-indol-2-yl]-N-(1,3-difluoropropan-2-yl)pyrimidine-5-sulfonamide], the IC50 is < 500 nM.
On to `Cc1cc2c(cc1F)cc(-c1ccc(S(=O)(=O)N[C@@H](C)C(F)(F)F)cn1)n2-c1cccs1` [compound 989, 6-[5-fluoro-6-methyl-1-(thiophen-2-yl)-1H-indol-2-yl]-N-[(2S)-1,1,1-trifluoropropan-2-yl]pyridine-3-sulfonamide], for which the concentration for half-maximal inhibition (IC50) was < 500 nM.
As to `N#Cc1c(-c2ccc(S(=O)(=O)NC(CF)CF)cn2)n(C2CCC2)c2cc(CF)ccc12` [compound 318, 6-[3-cyano-1-cyclobutyl-6-(fluoromethyl)-1H-indol-2-yl]-N-(1,3-difluoropropan-2-yl)pyridine-3-sulfonamide], the concentration for half-maximal inhibition (IC50) is < 500 nM.
For `C=CCc1cc2c(cc1F)c(C#N)c(-c1ccc(S(=O)(=O)N[C@@H](C)C(F)(F)F)cn1)n2-c1ncccn1` [compound 967, 6-[3-cyano-5-fluoro-6-(prop-2-en-1-yl)-1-(pyrimidin-2-yl)-1H-indol-2-yl]-N-[(2S)-1,1,1-trifluoropropan-2-yl]pyridine-3-sulfonamide], the IC50 is < 500 nM.
For `COC(=O)c1csc(-n2c(-c3ccc(S(=O)(=O)N[C@@H](C)C(F)(F)F)cn3)c(C#N)c3cc(F)c(C)cc32)n1` [compound 986, methyl 2-[3-cyano-5-fluoro-6-methyl-2-(5-{[(2S)-1,1,1-trifluoropropan-2-yl]sulfamoyl}pyridin-2-yl)-1H-indol-1-yl]-1,3-thiazole-4-carboxylate], the half-maximal inhibitory concentration (IC50) is < 500 nM.
Take `CCc1cc2c(cc1F)c(C#N)c(-c1ccc(S(=O)(=O)NC3(C(F)(F)F)CC3)cn1)n2-c1ncccn1` [compound 864, 6-[3-cyano-6-ethyl-5-fluoro-1-(pyrimidin-2-yl)-1H-indol-2-yl]-N-[1-(trifluoromethyl)cyclopropyl]pyridine-3-sulfonamide]: the IC50 is < 500 nM.
For `CCS(=O)(=O)Nc1ccc(-c2c(C#N)c3ccc(OCC(F)(F)F)cc3n2CC2CC2)cn1` [compound 290, N-{5-[3-cyano-1-(cyclopropylmethyl)-6-(2,2,2-trifluoroethoxy)-1H-indol-2-yl]pyridin-2-yl}ethanesulfonamide] the value was 2000 to 5000 nM; for `CNC(=O)c1c(-c2ccc(S(=O)(=O)N[C@@H](C)C(F)(F)F)cn2)n(C2CCCC2)c2cc(C)c(F)cc12` [compound 761, (S)-1-cyclopentyl-5-fluoro-N,6-dimethyl-2-(5-(N-(1,1,1-trifluoropropan-2-yl)sulfamoyl)pyridin-2-yl)-1H-indole-3-carboxamide], < 500 nM.
In the case of `CC(C)NS(=O)(=O)c1ccc(-c2c(C#N)c3ccc(OC(F)(F)F)cc3n2C2CCCC2)nc1` [compound 17, 6-[3-cyano-1-cyclopentyl-6-(trifluoromethoxy)-1H-indol-2-yl]-N-(propan-2-yl)pyridine-3-sulfonamide], the 50% inhibitory concentration (IC50) lay in the range of 500 to 2000 nM.
For the molecule `C[C@H](NS(=O)(=O)c1ccc(-c2c(C#N)c3ccc(OC(F)(F)F)cc3n2C2CCCCC2)nc1)C(F)(F)F` [compound 459, 6-[3-cyano-1-cyclohexyl-6-(trifluoromethoxy)-1H-indol-2-yl]-N-[(2S)-1,1,1-trifluoropropan-2-yl]pyridine-3-sulfonamide], the concentration for half-maximal inhibition (IC50) is < 500 nM.
Take `C[C@H](NS(=O)(=O)c1cnc(-c2c(C#N)c3ccc(Cl)cc3n2CC2CC2)nc1)C(F)(F)F` [compound 415, 2-[6-chloro-3-cyano-1-(cyclopropylmethyl)-1H-indol-2-yl]-N-[(2S)-1,1,1-trifluoropropan-2-yl]pyrimidine-5-sulfonamide]: the IC50 is < 500 nM.
For the molecule `CCc1cc2c(cc1F)c(C#N)c(-c1ccc(S(=O)(=O)NC(C)(C)C(F)(F)F)cn1)n2-c1ncccn1` [compound 859, 6-[3-cyano-6-ethyl-5-fluoro-1-(pyrimidin-2-yl)-1H-indol-2-yl]-N-(1,1,1-trifluoro-2-methylpropan-2-yl)pyridine-3-sulfonamide], the IC50 was in the range of 500 to 2000 nM.
As for `C[C@H](NS(=O)(=O)c1ccc(-c2c(C#N)c3cc(F)c(CC(F)F)cc3n2C2CCC2)nc1)C(F)(F)F` [compound 697, 6-[3-cyano-1-cyclobutyl-6-(2,2-difluoroethyl)-5-fluoro-1H-indol-2-yl]-N-[(2S)-1,1,1-trifluoropropan-2-yl]pyridine-3-sulfonamide], the IC50 was < 500 nM.
Take `CC(O)c1cc2c(cc1F)c(C#N)c(-c1ccc(S(=O)(=O)N[C@@H](C)C(F)(F)F)cn1)n2-c1ncccn1` (stereo partly drawn) [compound 911, 6-[3-cyano-5-fluoro-6-(1-hydroxyethyl)-1-(pyrimidin-2-yl)-1H-indol-2-yl]-N-[(2S)-1,1,1-trifluoropropan-2-yl]pyridine-3-sulfonamide]: the IC50 was < 500 nM.
Take `CC(C)NS(=O)(=O)c1ccc(-c2c(C#N)c3ccc(C4CC4)cc3n2C2CCC2)cn1` [compound 27, 5-(3-cyano-1-cyclobutyl-6-cyclopropyl-1H-indol-2-yl)-N-(propan-2-yl)pyridine-2-sulfonamide]: the IC50 was < 500 nM.
Regarding `Cc1cnc(-n2c(-c3ccc(S(=O)(=O)N[C@@H](C)C(F)(F)F)cn3)c(C#N)c3cc(F)c(C)cc32)cn1` [compound 865, 6-[3-cyano-5-fluoro-6-methyl-1-(5-methylpyrazin-2-yl)-1H-indol-2-yl]-N-[(2S)-1,1,1-trifluoropropan-2-yl]pyridine-3-sulfonamide], the IC50 is < 500 nM.
For `N#Cc1c(-c2ccc(S(=O)(=O)NC(CF)CF)cn2)n(C2CCC2)c2cc(C3CCC3)ccc12` [compound 342, 6-(3-cyano-1,6-dicyclobutyl-1H-indol-2-yl)-N-(1,3-difluoropropan-2-yl)pyridine-3-sulfonamide] the value was 500 to 2000 nM.
Turning to `CC(C)(C)NS(=O)(=O)c1ccc(-c2c(C#N)c3cc(F)ccc3n2-c2ncccn2)nc1` [compound 823, N-tert-butyl-6-[3-cyano-5-fluoro-1-(pyrimidin-2-yl)-1H-indol-2-yl]pyridine-3-sulfonamide], the IC50 is 500 to 2000 nM.
Regarding `CCc1cc2c(cc1F)c(C#N)c(-c1ccc(S(=O)(=O)N[C@@H](C)C(F)(F)F)cn1)n2C1=NC=CCN1` [compound 941, 6-[3-cyano-1-(1,6-dihydropyrimidin-2-yl)-6-ethyl-5-fluoro-1H-indol-2-yl]-N-[(2S)-1,1,1-trifluoropropan-2-yl]pyridine-3-sulfonamide], the IC50 was in the range of 500 to 2000 nM.
As for `CCc1cc2c(cc1F)c(C(=O)O)c(-c1cnc(NS(=O)(=O)C(C)(C)C)nc1)n2C1CCCCC1` [compound 1029, 2-{2-[(tert-butylsulfonyl)amino]pyrimidin-5-yl}-1-cyclohexyl-6-ethyl-5-fluoro-1H-indole-3-carboxylic acid], the half-maximal inhibitory concentration (IC50) fell in the range of 2000 to 5000 nM.
For the molecule `Cc1nc(NS(=O)(=O)C(C)(C)C)ccc1-c1c(C(=O)O)c2cc(F)c(OC(F)F)cc2n1C(C)C` [compound 1093, 2-{6-[(tert-butylsulfonyl)amino]-2-methylpyridin-3-yl}-6-(difluoromethoxy)-5-fluoro-1-(propan-2-yl)-1H-indole-3-carboxylic acid], the IC50 lay within 500 to 2000 nM.
On to `Cc1cc2c(cc1F)c(C#N)c(-c1ccc(S(=O)(=O)NC3(C(F)(F)F)CC3)cn1)n2C1CCCCC1` [compound 856, 6-(3-cyano-1-cyclohexyl-5-fluoro-6-methyl-1H-indol-2-yl)-N-[1-(trifluoromethyl)cyclopropyl]pyridine-3-sulfonamide], for which the IC50 was < 500 nM.
Turning to `C[C@H](NS(=O)(=O)c1ccc(-c2c(C(N)=O)c3cc(F)c(C4CC4)cc3n2C2CCCC2)nc1)C(F)(F)F` [compound 838, 1-cyclopentyl-6-cyclopropyl-5-fluoro-2-(5-{[(2S)-1,1,1-trifluoropropan-2-yl]sulfamoyl}pyridin-2-yl)-1H-indole-3-carboxamide], the concentration for half-maximal inhibition (IC50) was < 500 nM.
Turning to `C=CCc1cc2c(cc1F)cc(-c1ccc(S(=O)(=O)N[C@@H](C)C(F)(F)F)cn1)n2-c1ncccn1` [compound 969, 6-[5-fluoro-6-(prop-2-en-1-yl)-1-(pyrimidin-2-yl)-1H-indol-2-yl]-N-[(2S)-1,1,1-trifluoropropan-2-yl]pyridine-3-sulfonamide], the half-maximal inhibitory concentration (IC50) was < 500 nM.
With `COC(=O)c1c(-c2ccc(S(=O)(=O)N[C@@H](C)C(F)(F)F)cn2)n(C2CCCC2)c2cc(C)c(F)cc12` [compound 756, (S)-methyl 1-cyclopentyl-5-fluoro-6-methyl-2-(5-(N-(1,1,1-trifluoropropan-2-yl)sulfamoyl)pyridin-2-yl)-1H-indole-3-carboxylate], the IC50 was < 500 nM.
For the molecule `N#Cc1c(-c2ccc(S(=O)(=O)NC(CF)CF)cn2)n(C2CCCC2)c2ccc(C(F)F)cc12` [compound 535, 6-[3-cyano-1-cyclopentyl-5-(difluoromethyl)-1H-indol-2-yl]-N-(1,3-difluoropropan-2-yl)pyridine-3-sulfonamide], the 50% inhibitory concentration (IC50) is < 500 nM.
For `CCc1cc2c(cc1F)c(C#N)c(-c1ccc(S(=O)(=O)N[C@@H](C)C(F)(F)F)cn1)n2-c1ncccn1` [compound 704, 6-[3-cyano-6-ethyl-5-fluoro-1-(pyrimidin-2-yl)-1H-indol-2-yl]-N-[(2S)-1,1,1-trifluoropropan-2-yl]pyridine-3-sulfonamide] the value was < 500 nM; for `Cc1cc2c(cc1F)c(C#N)c(-c1ccc(S(=O)(=O)N[C@@H](C)C(F)(F)F)cn1)n2-c1ncccc1F` [compound 814, 6-[3-cyano-5-fluoro-1-(3-fluoropyridin-2-yl)-6-methyl-1H-indol-2-yl]-N-[(2S)-1,1,1-trifluoropropan-2-yl]pyridine-3-sulfonamide], < 500 nM.
Regarding `C[C@H](NS(=O)(=O)c1ccc(-c2c(C#N)c3cc(Cl)c(OC(F)F)cc3n2C2CCC2)nc1)C(F)(F)F` [compound 636, 6-[5-chloro-3-cyano-1-cyclobutyl-6-(difluoromethoxy)-1H-indol-2-yl]-N-[(2S)-1,1,1-trifluoropropan-2-yl]pyridine-3-sulfonamide], the IC50 is < 500 nM.
`CC(C)NS(=O)(=O)c1ccc(-c2c(C#N)c3cc(Cl)ccc3n2C2CCC2)cn1` [compound 28, 5-(5-chloro-3-cyano-1-cyclobutyl-1H-indol-2-yl)-N-(propan-2-yl)pyridine-2-sulfonamide]: the IC50 lay within 2000 to 5000 nM.
